Molecules are shown by their SMILES.

In the first test the target is T1, CTP synthase 1 (Homo sapiens, UniProt P17812).
T1 sequence (P17812 whole entry): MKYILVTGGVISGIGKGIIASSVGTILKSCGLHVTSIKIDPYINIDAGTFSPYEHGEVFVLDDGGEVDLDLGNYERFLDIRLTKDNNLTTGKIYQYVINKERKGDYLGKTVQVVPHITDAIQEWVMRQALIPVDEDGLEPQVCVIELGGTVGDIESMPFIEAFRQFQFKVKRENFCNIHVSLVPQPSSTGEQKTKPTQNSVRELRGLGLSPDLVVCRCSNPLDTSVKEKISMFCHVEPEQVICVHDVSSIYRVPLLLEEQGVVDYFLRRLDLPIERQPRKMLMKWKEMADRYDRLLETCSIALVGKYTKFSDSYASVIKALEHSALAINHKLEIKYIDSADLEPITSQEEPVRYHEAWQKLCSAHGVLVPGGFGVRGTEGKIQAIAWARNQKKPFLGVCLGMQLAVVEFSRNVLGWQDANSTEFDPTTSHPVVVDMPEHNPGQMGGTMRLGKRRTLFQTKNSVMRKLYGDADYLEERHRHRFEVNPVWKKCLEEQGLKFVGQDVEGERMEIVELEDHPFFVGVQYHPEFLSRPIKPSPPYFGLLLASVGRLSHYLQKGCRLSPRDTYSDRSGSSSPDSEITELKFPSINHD
The test is described as follows: Inhibition of C-terminal FLAG-His8-tagged full length human CTPS1 preincubated for 10 mins followed by substrate addition by ADP-Glo assay. A general note: In ADP-Glo the light output rises with the ADP produced.
Regarding `CCC(C(=O)Nc1ccc(-c2cncc(Cl)c2)cn1)c1ccnc(NS(=O)(=O)C2CC2)n1` (configuration not stated), the half-inhibitory concentration (IC50) was ≤ 100 nM.

With `CCOc1cncc(-c2cc(F)c(NC(=O)C(C)(C)c3ccnc(NS(=O)(=O)C4CC4)n3)c(F)c2)n1`, the IC50 is ≤ 100 nM.

Consider `CC(C)(C(=O)Nc1ccc(-c2cncc(C(F)(F)F)n2)cn1)c1ccnc(NS(=O)(=O)C2CC2)n1`, for which the IC50 is ≤ 100 nM.

`CCOc1cncc(-c2ccc(NC(=O)C(CC)c3nccc(NS(=O)(=O)C4CC4)n3)nc2)n1` (configuration not stated): the half-inhibitory concentration (IC50) is ≤ 100 nM.

Regarding `CCOc1cncc(-c2ccc(NC(=O)C(c3ccnc(NS(=O)(=O)C4CC4)n3)C(C)C)nc2)n1` (configuration not stated), the IC50 is ≤ 100 nM.

On to `COc1cncc(-c2ccc(NC(=O)Cc3cccc(NS(=O)(=O)C4CC4)n3)cc2)n1`, for which the half-maximal inhibitory concentration (IC50) was ≤ 100 nM.

Take `CCOc1cncc(-c2cnc(NC(=O)C(C)(C)c3ccnc(NS(=O)(=O)C4CC4)n3)c(F)c2)n1`: the concentration for half-maximal inhibition (IC50) is ≤ 100 nM.

In the case of `CCOc1cncc(-c2ccc(NC(=O)C3(c4ccnc(NS(=O)(=O)C5CC5)n4)CC4(C3)OCCO4)nc2)n1`, the IC50 was ≤ 100 nM.

On to `CCOc1cncc(-c2ccc(NC(=O)C(C)(C)c3ccnc(NS(=O)(=O)C4CC4)n3)c(OC)c2)n1`, for which the concentration for half-maximal inhibition (IC50) was ≤ 100 nM.

`CCC(C(=O)Nc1ccc(-c2cncc(OC(C)C)n2)cc1)c1ccnc(NS(=O)(=O)C2CC2)n1` (configuration not stated): the half-maximal inhibitory concentration (IC50) is ≤ 100 nM.

For `CCC(F)(C(=O)Nc1ccc(-c2cncc(Cl)c2)cn1)c1ccnc(NS(=O)(=O)C2CC2)n1` (configuration not stated), the half-inhibitory concentration (IC50) is ≤ 100 nM.

For `CCOc1cncc(-c2ccc(NC(=O)C3(c4ccnc(NS(=O)(=O)C5CC5)n4)CCC(N(C)C)CC3)nc2)n1` (stereo in doubt; form 1) [listing 1 of 2 here], the IC50 was ≤ 100 nM.

Consider `CCOc1cncc(-c2ccc(NC(=O)C(C)(C)c3ccnc(NS(=O)(=O)C4CC4)n3)cn2)n1`, for which the IC50 is ≤ 100 nM.

Turning to `CCOc1cncc(-c2ccc(NC(=O)C(C)(C)c3ccnc(NS(=O)(=O)C4CC4)n3)c(Cl)c2)n1`, the concentration for half-maximal inhibition (IC50) was ≤ 100 nM.

Take `O=C(Cc1ccnc(NS(=O)(=O)C2CC2)n1)Nc1ccc(-c2cncc(C(F)(F)F)n2)cc1`: the concentration for half-maximal inhibition (IC50) is ≤ 100 nM.

Take `CCC(C(=O)Nc1ccc(-c2cncc(OC)n2)cc1)c1ccnc(NS(=O)(=O)C2CC2)n1` (configuration not stated): the IC50 is ≤ 100 nM.

Regarding `O=C(Cc1ccnc(NS(=O)(=O)C2CC2)n1)Nc1ccc(-c2cncc(C(F)(F)F)n2)cc1F`, the concentration for half-maximal inhibition (IC50) was ≤ 100 nM.

For the molecule `CCC(C(=O)Nc1ccc(-c2cncc(C(F)(F)F)n2)cc1F)c1ccnc(NS(=O)(=O)C2CC2)n1` (configuration not stated), the half-maximal inhibitory concentration (IC50) is ≤ 100 nM.

For the molecule `CC(C)(C(=O)Nc1ccc(-c2cncc(OC3CC3)n2)cn1)c1ccnc(NS(=O)(=O)C2CC2)n1`, the half-inhibitory concentration (IC50) is ≤ 100 nM.

Turning to `CCOc1cncc(-c2ccc(NC(=O)C3(c4ccnc(NS(=O)(=O)C5(C#N)CC5)n4)CCOCC3)nc2)n1`, the half-maximal inhibitory concentration (IC50) is ≤ 100 nM.

`CC(C)Oc1cncc(-c2ccc(NC(=O)C(C)(C)c3ccnc(NS(=O)(=O)C4CC4)n3)cc2)n1`: the IC50 is ≤ 100 nM.

Regarding `CCOc1cncc(-c2ccc(NC(=O)C(CC)(CC)c3ccnc(NS(=O)(=O)C4CC4)n3)cc2)n1`, the concentration for half-maximal inhibition (IC50) was ≤ 100 nM.

Take `CC(C)(C(=O)Nc1ccc(-c2cncc(C(F)(F)F)n2)cc1F)c1ccnc(NS(=O)(=O)C2CC2)n1`: the concentration for half-maximal inhibition (IC50) is ≤ 100 nM.

Consider `CCOc1cncc(-c2ccc(NC(=O)C(C)(OC)c3cncc(NS(=O)(=O)C4CC4)n3)nc2)n1` (configuration not stated), for which the IC50 was ≤ 100 nM.

On to `CCOc1cncc(-c2ccc(NC(=O)C(F)(CC)c3ccnc(NS(=O)(=O)C4CC4)n3)nc2)n1` (stereo in doubt; form 1), for which the IC50 was ≤ 100 nM.

Take `COc1cncc(-c2ccc(NC(=O)Cc3ccnc(NS(=O)(=O)C4CC4)n3)cc2)n1`: the IC50 was ≤ 100 nM.

With `CC(C)(C(=O)Nc1ccc(-c2cncc(OC(F)F)c2)cc1)c1ccnc(NS(=O)(=O)C2CC2)n1`, the IC50 is ≤ 100 nM.

As for `CCC(C(=O)Nc1ccc(-c2cncc(C3CC3)n2)cn1)c1ccnc(NS(=O)(=O)C2CC2)n1` (configuration not stated), the half-maximal inhibitory concentration (IC50) was ≤ 100 nM.

As for `CCS(=O)(=O)Nc1nccc(C(C)(C)C(=O)Nc2ccc(-c3cncc(OC)n3)cc2F)n1`, the IC50 is ≤ 1000 nM.

`CCOc1cncc(-c2ccc(NC(=O)C(OC)c3cncc(NS(=O)(=O)C4CC4)n3)nc2)n1` (configuration not stated): the 50% inhibitory concentration (IC50) is ≤ 100 nM.

In the case of `CCC(NC(=O)c1ccc(-c2cncc(OC(C)C)n2)cc1)c1ccnc(NS(=O)(=O)C2CC2)n1` (configuration not stated), the IC50 was ≤ 100 nM.

`O=C(Cc1ccnc(NS(=O)(=O)C2CC2)n1)Nc1ccc(-c2cncc(OCC(F)(F)F)n2)cc1`: the IC50 was ≤ 100 nM.

As to `CCC(C(=O)Nc1ccc(-c2cncc(OCC(F)(F)F)n2)cn1)c1ccnc(NS(=O)(=O)C2CC2)n1` (configuration not stated), the IC50 was ≤ 100 nM.

As for `CCOc1cncc(-c2ccc(NC(=O)C(C)(C)c3ccnc(NS(=O)(=O)C4CC4)n3)c(OC(F)(F)F)c2)n1`, the IC50 was ≤ 100 nM.

Take `CCOc1cncc(-c2cnc(NC(=O)C(CCOC)c3ccnc(NS(=O)(=O)C4CC4)n3)c(F)c2)n1` (configuration not stated): the concentration for half-maximal inhibition (IC50) was ≤ 100 nM.

On to `CCOc1cncc(-c2ccc(C(=O)NC(CC)c3cncc(NS(=O)(=O)C4CC4)n3)c(F)c2)n1` (configuration not stated), for which the IC50 was ≤ 100 nM.

As for `CCOc1cncc(-c2ccc(NC(=O)C(C)(C)c3ccnc(NS(C)(=O)=O)n3)cc2)n1`, the IC50 was ≤ 100 nM.

For `CCOc1cncc(-c2ccc(NC(=O)C3(c4ccnc(NS(=O)(=O)C5CC5)n4)CCC(O)CC3)nc2)n1` (stereo in doubt), the IC50 is ≤ 100 nM.

Take `CCOc1cncc(-c2ccc(NC(=O)C(OC)c3cncc(NS(=O)(=O)C4CC4)n3)cc2)n1` (configuration not stated): the IC50 is ≤ 100 nM.

In the case of `CCOc1cncc(-c2ccc(NC(=O)C(F)(F)c3ccnc(NS(=O)(=O)C4CC4)n3)c(F)c2)n1`, the concentration for half-maximal inhibition (IC50) is ≤ 100 nM.

Take `CCOc1cncc(-c2ccc(NC(=O)C3(c4ccnc(NS(=O)(=O)C5CC5)n4)CCC(OC)CC3)nc2)n1` (configuration not stated): the IC50 was ≤ 100 nM.

Consider `CCOc1cncc(-c2ccc(NC(=O)C3(c4cccc(NS(=O)(=O)C5CC5)n4)CCOCC3)nc2)n1`, for which the IC50 is ≤ 100 nM.

Take `CC(C)(C(=O)Nc1ccc(-c2cncc(C(F)(F)F)n2)cc1)c1ccnc(NS(=O)(=O)C2CC2)n1`: the IC50 is ≤ 100 nM.

Consider `COc1cncc(-c2ccc(NC(=O)C(C)(C)c3ccnc(NS(=O)(=O)C4CC4)n3)cc2)n1`, for which the IC50 was ≤ 100 nM.

For `CCC(C(=O)Nc1ccc(-c2cncc(C3CC3)n2)cc1F)c1ccnc(NS(=O)(=O)C2CC2)n1` (configuration not stated), the IC50 is ≤ 100 nM.

Consider `CCOc1cncc(-c2ccc(NC(=O)C(F)(c3ccnc(NS(=O)(=O)C4CC4)n3)C(C)C)nc2)n1` (configuration not stated), for which the IC50 is ≤ 100 nM.

For the molecule `CCC(C(=O)Nc1ccc(-c2cncc(OC(C)C)n2)cc1F)c1ccnc(NS(=O)(=O)C2CC2)n1` (configuration not stated), the 50% inhibitory concentration (IC50) was ≤ 100 nM.

Regarding `CCOc1cccc(-c2ccc(NC(=O)C(C)(C)c3ccnc(NS(=O)(=O)C4CC4)n3)cc2)c1`, half-maximal inhibition (IC50) was put at 10000 nM.

As to `CCOc1cncc(-c2ccc(NC(=O)C(c3ccnc(NS(=O)(=O)C4CC4)n3)C(C)C)c(F)c2)n1` (configuration not stated), the IC50 was ≤ 100 nM.

`CCOc1cncc(-c2ccc(NC(=O)C(F)(CC)c3cncc(NS(=O)(=O)C4CC4)n3)nc2)n1` (stereo in doubt; form 1): the IC50 was ≤ 100 nM.

For the molecule `CCOc1cncc(-c2ccc(NC(=O)C3(c4ccnc(NS(=O)(=O)C5CC5)n4)CCOCC3)cc2)n1`, the IC50 was ≤ 100 nM.

Take `CCC(F)(C(=O)Nc1ccc(-c2cncc(C3CC3)n2)cn1)c1ccnc(NS(=O)(=O)C2CC2)n1` (configuration not stated): the concentration for half-maximal inhibition (IC50) was ≤ 100 nM.

As to `Cc1ncc(-c2ccc(NC(=O)C(C)(C)c3ccnc(NS(C)(=O)=O)n3)c(C)c2)cn1`, the IC50 is ≥ 1000 nM.

The species entered for another test is Homo sapiens. Description: Selectivity ratio of IC50 for human CTPS2 to IC50 for human CTPS1 by RapidFire/MS analysis.
As to `CCOc1cncc(-c2ccc(NC(=O)C(C)(C)c3ccnc(NS(C)(=O)=O)n3)nc2)n1`, the Ratio IC50 was 30.

`CCOc1cncc(-c2ccc(NC(=O)C3(c4ccnc(NS(=O)(=O)C5CC5)n4)CCC(N(C)C)CC3)nc2)n1` (stereo in doubt; form 1) [listing 2 of 2 here]: the Ratio IC50 was > 60.

For the molecule `CCOc1cncc(-c2ccc(NC(=O)C(C)(OC)c3cncc(NS(=O)(=O)C4CC4)n3)nc2)n1` (stereo in doubt; form 1), the Ratio IC50 is > 60.

For the molecule `CC(C)(NC(=O)c1ccc(-c2cncc(C(F)(F)F)n2)cc1)c1cncc(NS(=O)(=O)C2CC2)n1`, the Ratio IC50 was 2.

In the case of `CC(C)(C(=O)Nc1ccc(-c2cncc(C3CC3)n2)cn1)c1ccnc(NS(=O)(=O)C2CC2)n1`, the Ratio IC50 came out at 30.

With `O=C(Cc1ccnc(NS(=O)(=O)C2CC2)n1)Nc1ccc(-c2cccnc2)cc1`, the Ratio IC50 is 30.

Consider `CC(C)Oc1cncc(-c2ccc(C(=O)NC(C)(C)c3cncc(NS(=O)(=O)C4CC4)n3)c(F)c2)n1`, for which the Ratio IC50 was 2.

As to `CCOc1cncc(-c2ccc(NC(=O)C(C)(C)c3nc(NS(=O)(=O)C4CC4)ncc3F)cc2)n1`, the Ratio IC50 is 30.

For `CC(C)c1cncc(-c2ccc(NC(=O)C(C)(C)c3ccnc(NS(=O)(=O)C4CC4)n3)cc2)n1`, the Ratio IC50 was found to be 30.

Turning to `CCOc1cncc(-c2ccc(NC(=O)C(F)(CC)c3cncc(NS(=O)(=O)C4CC4)n3)nc2)n1` (stereo in doubt; form 3), the Ratio IC50 amounted to 2.

Consider `CC(C)(C(=O)Nc1ccc(-c2cccnc2)cc1)c1ccnc(NS(=O)(=O)C2CC2)n1`, for which the Ratio IC50 turned out to be 2.

In the case of `CCOc1cncc(-c2ccc(NC(=O)C(C)(C)c3nc(NS(=O)(=O)C4CC4)ncc3C)cc2)n1`, the Ratio IC50 is 2.

With `CCC(C(=O)Nc1ncc(-c2cncc(OC)n2)cc1F)c1ccnc(NS(=O)(=O)C2CC2)n1` (configuration not stated), the Ratio IC50 stood at 2.

As to `CCC(C(=O)Nc1ccc(-c2cncc(C(F)(F)F)n2)cc1)c1ccnc(NS(=O)(=O)C2CC2)n1` (configuration not stated), the Ratio IC50 is 2.

Broadly, the IC50 is the point on the concentration scale where inhibition reaches its midpoint. A low value points to greater potency in that assay.

For the origin of these results see ChEMBL document CHEMBL5393444, “Sulfonamide derivatives as ctps1 inhibitors” (2022).
